In ChEMBL document CHEMBL5108033, “Salidroside attenuates sepsis-associated acute lung injury through PPP1R15A mediated endoplasmic reticulum stress inhibition” (2022):
Calls of active or inactive are those of the source. The rule behind the calls is not given here.

Key:
Rattus norvegicus [1] = assay: Protection against cecal ligation-induced Sprague-Dawley rat sepsis associated acute lung injury model assessed as reduction in serum IL-1beta at 50 mg/kg, ip and measured after 24 hrs by ELISA; format: functional, organism-based
Rattus norvegicus [2] = assay: Protection against cecal ligation-induced Sprague-Dawley rat sepsis associated acute lung injury model assessed as downregulation of cecal ligation induced GRP78 level at 50 mg/kg, ip and measured after 24 hrs; format: functional, organism-based
Rattus norvegicus [3] = assay: Protection against cecal ligation-induced Sprague-Dawley rat sepsis associated acute lung injury model assessed as upregulation of cecal ligation inhibited PPP1R15A at 50 mg/kg, ip and measured after 24 hrs; format: functional, organism-based
Rattus norvegicus [4] = assay: Protection against cecal ligation-induced Sprague-Dawley rat sepsis associated acute lung injury model assessed as downregulation of cecal ligation induced phosphorylated eIF-2alpha level at 50 mg/kg, ip and measured after 24 hrs; format: functional, organism-based
Rattus norvegicus [5] = assay: Protection against cecal ligation-induced Sprague-Dawley rat sepsis associated acute lung injury model assessed as reduction in lung water content at 50 mg/kg, ip and measured after 24 hrs; format: functional, organism-based
Rattus norvegicus [6] = assay: Protection against cecal ligation-induced Sprague-Dawley rat sepsis associated acute lung injury model assessed as downregulation of cecal ligation induced CHOP level at 50 mg/kg, ip and measured after 24 hrs; format: functional, organism-based
Rattus norvegicus [7] = assay: Protection against cecal ligation-induced Sprague-Dawley rat sepsis associated acute lung injury model assessed as reduction in neutrophil elastase activity in BALF at 50 mg/kg, ip and measured after 24 hrs by Elastase assay; format: functional, organism-based
Rattus norvegicus [8] = assay: Protection against cecal ligation-induced Sprague-Dawley rat sepsis associated acute lung injury model assessed as reduction in total cell number in BALF at 50 mg/kg, ip and measured after 24 hrs by cell counter analysis; format: functional, organism-based
Rattus norvegicus [9] = assay: Protection against cecal ligation-induced Sprague-Dawley rat sepsis associated acute lung injury model assessed as reduction in lung wet weight to dry weight ratio at 50 mg/kg, ip and measured after 24 hrs; format: functional, organism-based
Rattus norvegicus [10] = assay: Protection against cecal ligation-induced Sprague-Dawley rat sepsis associated acute lung injury model assessed as reduction in lung injury at 50 mg/kg, ip and measured after 24 hrs by H and E staining based analysis; format: functional, organism-based
Rattus norvegicus [11] = assay: Protection against cecal ligation-induced Sprague-Dawley rat sepsis associated acute lung injury model assessed as reduction in serum TNF-alpha at 50 mg/kg, ip and measured after 24 hrs by ELISA; format: functional, organism-based
Rattus norvegicus [12] = assay: Protection against cecal ligation-induced Sprague-Dawley rat sepsis associated acute lung injury model assessed as reduction in neutrophil number in BALF at 50 mg/kg, ip and measured after 24 hrs by cell counter analysis; format: functional, organism-based
Rattus norvegicus [13] = assay: Protection against cecal ligation-induced Sprague-Dawley rat sepsis associated acute lung injury model assessed as downregulation of cecal ligation induced ATF4 level at 50 mg/kg, ip and measured after 24 hrs; format: functional, organism-based
Rattus norvegicus [14] = assay: Protection against cecal ligation-induced Sprague-Dawley rat sepsis associated acute lung injury model assessed as reduction in albumin content in alveolar lavage fluid supernatant at 50 mg/kg, ip and measured after 24 hrs; format: functional, organism-based
Rattus norvegicus [15] = assay: Protection against cecal ligation-induced Sprague-Dawley rat sepsis associated acute lung injury model assessed as reduction in serum IL-6 at 50 mg/kg, ip and measured after 24 hrs by ELISA; format: functional, organism-based
Epithelial cell [16] = assay: Inhibition of apoptosis in LPS-stimulated human HBE cells assessed as late apoptotic cells at 40 uM incubated for 1 hr by AnnexinV-FITC/PI staining based flow cytometric analysis (Rvb=5.75%); format: functional; set-up: scale not given: the % may be the effect or the level left
Epithelial cell [17] = assay: Downregulation of CHOP in LPS-stimulated human HBE cells with silenced PPP1R15A at 40 uM incubated for 1 hr in presence of TUDCA by western blot analysis; format: functional, cell-based
Epithelial cell [18] = assay: Inhibition of apoptosis in LPS-stimulated human HBE cells with silenced PPP1R15A assessed as early apoptotic cells at 40 uM incubated for 1 hr in presence of TUDCA by AnnexinV-FITC/PI staining based flow cytometric analysis (Rvb=9.22%); format: functional; set-up: scale not given: the % may be the effect or the level left
Epithelial cell [19] = assay: Inhibition of apoptosis in LPS-stimulated human HBE cells assessed as early apoptotic cells at 40 uM incubated for 1 hr by AnnexinV-FITC/PI staining based flow cytometric analysis (Rvb=21.5%); format: functional; set-up: scale not given: the % may be the effect or the level left
Epithelial cell [20] = assay: Inhibition of apoptosis in LPS-stimulated human HBE cells assessed as necrotic cells at 40 uM incubated for 1 hr by AnnexinV-FITC/PI staining based flow cytometric analysis (Rvb=0.444%); format: functional; set-up: scale not given: the % may be the effect or the level left
Epithelial cell [21] = assay: Induction of apoptosis in LPS-stimulated human HBE cells with silenced PPP1R15A assessed as necrotic cells at 40 uM incubated for 1 hr by AnnexinV-FITC/PI staining based flow cytometric analysis (Rvb=0.518%); format: functional
Epithelial cell [22] = assay: Downregulation of ATF4 in LPS-stimulated human HBE cells with silenced PPP1R15A at 40 uM incubated for 1 hr in presence of TUDCA by western blot analysis; format: functional, cell-based
Epithelial cell [23] = assay: Cytotoxicity against LPS-stimulated human HBE cells assessed as increase in cell viability at 40 uM and measured for 24 to 72 hrs by CCK-8 assay; format: functional, cell-based; conditions: time 24-72 hrs
Epithelial cell [24] = assay: Inhibition of apoptosis in LPS-stimulated human HBE cells with silenced PPP1R15A assessed as late apoptotic cells at 40 uM incubated for 1 hr in presence of TUDCA by AnnexinV-FITC/PI staining based flow cytometric analysis (Rvb=5.08%); format: functional; set-up: scale not given: the % may be the effect or the level left
Epithelial cell [25] = assay: Downregulation of GRP78 in LPS-stimulated human HBE cells with silenced PPP1R15A at 40 uM incubated for 1 hr in presence of TUDCA by western blot analysis; format: functional, cell-based
Epithelial cell [26] = assay: Inhibition of apoptosis in LPS-stimulated human HBE cells assessed as viable cells at 40 uM incubated for 1 hr by AnnexinV-FITC/PI staining based flow cytometric analysis (Rvb=72.3%); format: functional; conditions: read-out: Activity
Epithelial cell [27] = assay: Inhibition of apoptosis in LPS-stimulated human HBE cells with silenced PPP1R15A assessed as necrotic cells at 40 uM incubated for 1 hr in presence of TUDCA by AnnexinV-FITC/PI staining based flow cytometric analysis (Rvb=83.2%); format: functional; set-up: scale not given: the % may be the effect or the level left
Epithelial cell [28] = assay: Induction of apoptosis in LPS-stimulated human HBE cells with silenced PPP1R15A assessed as late apoptotic cells at 40 uM incubated for 1 hr by AnnexinV-FITC/PI staining based flow cytometric analysis (Rvb=85.7%); format: functional
Epithelial cell [29] = assay: Inhibition of apoptosis in LPS-stimulated human HBE cells with silenced PPP1R15A assessed as necrotic cells at 40 uM incubated for 1 hr in presence of TUDCA by AnnexinV-FITC/PI staining based flow cytometric analysis (Rvb=2.48%); format: functional; set-up: scale not given: the % may be the effect or the level left
Epithelial cell [30] = assay: Downregulation of CHOP expression in LPS-stimulated human HBE cells at 40 uM incubated for 1 hr by western blot analysis; format: functional, cell-based
Epithelial cell [31] = assay: Induction of apoptosis in LPS-stimulated human HBE cells with silenced PPP1R15A assessed as early apoptotic cells at 40 uM incubated for 1 hr by AnnexinV-FITC/PI staining based flow cytometric analysis (Rvb=11%); format: functional
Epithelial cell [32] = assay: Upregulation of PPP1R15A expression in LPS-stimulated human HBE cells assessed as inhibition of LPS down regulated PPP1R15A expression at 40 uM incubated for 1 hrs by qRT-PCR analysis; format: functional, cell-based
Epithelial cell [33] = assay: Induction of apoptosis in LPS-stimulated human HBE cells with silenced PPP1R15A assessed as late apoptotic cells at 40 uM incubated for 1 hr by AnnexinV-FITC/PI staining based flow cytometric analysis (Rvb=2.30%); format: functional
Epithelial cell [34] = assay: Downregulation of ATF4 expression in LPS-stimulated human HBE cells at 40 uM incubated for 1 hr by western blot analysis; format: functional, cell-based
Epithelial cell [35] = assay: Downregulation of phosphorylated eIF-2alpha expression in LPS-stimulated human HBE cells with silenced PPP1R15A at 40 uM incubated for 1 hr in presence of TUDCA by western blot analysis; format: functional, cell-based
Epithelial cell [36] = assay: Cytotoxicity against LPS-stimulated human HBE cells with silenced PPP1R15A assessed as increase in cell viability at 40 uM and measured for 24 to 72 hrs in presence of TUDCA by CCK-8 assay; format: functional, cell-based; conditions: time 24-72 hrs
Epithelial cell [37] = assay: Downregulation of GRP78 expression in LPS-stimulated human HBE cells at 40 uM incubated for 1 hr by western blot analysis; format: functional, cell-based
Epithelial cell [38] = assay: Downregulation of phosphorylated eIF-2alpha expression in LPS-stimulated human HBE cells at 40 uM incubated for 1 hr by western blot analysis; format: functional, cell-based

Structure (SMILES): C[C@@H]1C[C@H]2[C@@H]3CCC4=CC(=O)C=C[C@]4(C)[C@@]3(F)[C@@H](O)C[C@]2(C)[C@@]1(O)C(=O)CO
- Activity (Rattus norvegicus [1]): Active
- Activity (Rattus norvegicus [2]): Active
- Activity (Rattus norvegicus [3]): Active
- Activity (Rattus norvegicus [4]): Active
- Activity (Rattus norvegicus [5]): Active
- Activity (Rattus norvegicus [6]): Active
- Activity (Rattus norvegicus [7]): Active
- Activity (Rattus norvegicus [8]): Active
- Activity (Rattus norvegicus [9]): Active
- Activity (Rattus norvegicus [10]): Active
- Activity (Rattus norvegicus [11]): Active
- Activity (Rattus norvegicus [12]): Active
- Activity (Rattus norvegicus [13]): Active
- Activity (Rattus norvegicus [14]): Active
- Activity (Rattus norvegicus [15]): Active

Structure (SMILES): OC[C@H]1O[C@@H](OCCc2ccc(O)cc2)[C@H](O)[C@@H](O)[C@@H]1O [SALIDROSIDE]
- Activity (Epithelial cell [16]): 3.27%
- Activity (Rattus norvegicus [1]): Active
- Activity (Rattus norvegicus [2]): Active
- Activity (Rattus norvegicus [3]): Active
- Activity (Epithelial cell [17]): Active
- Activity (Epithelial cell [18]): 11.5%
- Activity (Rattus norvegicus [4]): Active
- Activity (Epithelial cell [19]): 11%
- Activity (Epithelial cell [20]): 1.03%
- Activity (Rattus norvegicus [5]): Active
- Activity (Rattus norvegicus [6]): Active
- Activity (Epithelial cell [21]): 0.436%
- Activity (Epithelial cell [22]): Active
- Activity (Rattus norvegicus [7]): Active
- Activity (Epithelial cell [23]): Active
- Activity (Epithelial cell [24]): 3.7%
- Activity (Epithelial cell [25]): Active
- Activity (Rattus norvegicus [8]): Active
- Activity (Rattus norvegicus [9]): Active
- viability at 40 µM (Epithelial cell [26]): 84.7%
- Activity (Rattus norvegicus [10]): Active
- Activity (Rattus norvegicus [11]): Active
- Activity (Epithelial cell [27]): 84%
- Activity (Epithelial cell [28]): 74.3%
- Activity (Epithelial cell [29]): 0.817%
- Activity (Rattus norvegicus [12]): Active
- Activity (Rattus norvegicus [13]): Active
- Activity (Rattus norvegicus [14]): Active
- Activity (Epithelial cell [30]): Active
- Activity (Epithelial cell [31]): 21.3%
- Activity (Epithelial cell [32]): Active
- Activity (Epithelial cell [33]): 3.74%
- Activity (Epithelial cell [34]): Active
- Activity (Epithelial cell [35]): Active
- Activity (Epithelial cell [36]): Active
- Activity (Epithelial cell [37]): Active
- Activity (Rattus norvegicus [15]): Active
- Activity (Epithelial cell [38]): Active
